In patent EP1000624A1, “Use of DOP as antioxidant, anti-ageing additive and medicament” (priority 1998, dated 2000):

Columns and labels:
Haut = assay: skin irritation test according to EU Commission 93/21/EEC; format: in vivo, Kaninchen; settings: rabbit; after 24, 48 and 72 hours
From the text: (§1) Um festzustellen, ob DOP Reizungen der Augen oder der Haut hervorrufen kann, wurde am Kaninchen ein Augenreiztest und ein Hautreiztest durchgeführt, beide gemäß der Verordnung der EU-Kommission Nr. 93/21/EEC vom 27.04.1993.

acute toxicity, peroral = assay: acute toxicity, peroral; design: species or system Ratte; settings: in vivo, po, rat
Method: Die akute Toxizität von DOP wurde peroral an der Ratte bestimmt; die letale Dosis, bei der 50% der Versuchstiere verenden (LD50), beträgt mehr als 2000 mg/kg.

[1] = system: Kornea, Iris und Konjunktiva; assay: eye irritation test according to EU Commission 93/21/EEC; format: in vivo, Kaninchen; settings: rabbit; effects on cornea, iris and conjunctiva after 24, 48 and 72 hours
From the text: as §1

SMILES: O=[PH]1Oc2ccccc2-c2ccccc21 (stereo not shown) [DOP, (6H)-Dibenz-(c,e)(1,2)-oxaphosphorin-6-on]
- Hautreiztest: Einstufung (Haut): nicht hautreizend
- Hautreiztest: Erythembildung / Oedembildung (Haut): weder eine Erythembildung noch eine Oedembildung
- LD50 (acute toxicity, peroral): > 2000 mg/kg
- Augenreiztest: Einstufung [1]: nicht augenreizend
